Earlier results as cited in article PMC7806714, “Statins for the prevention of proliferative vitreoretinopathy: cellular responses in cultured cells and clinical statin concentrations in the vitreous” (Scientific Reports, 2021).
Where two headings read alike, the source gives them in different places.

Conditions: plasma, cited from earlier work
[1] = 10 mg/d single oral dose, n=12, China, ref [30]
[2] = 10 mg/d single oral dose, n=18, Germany, ref [31]
[3] = 20 mg/d single oral dose, n=6, UK, ref [32]
[4] = 20 mg/d single oral dose, n=12, Chinese, ref [30]

CC(C)c1nc(N(C)S(C)(=O)=O)nc(-c2ccc(F)cc2)c1/C=C/[C@@H](O)C[C@@H](O)CC(=O)O [Rosuvastatin]
AUC0−∞ [1]: 103 ng·h/mL | Cmax [1]: 10.8 ng/mL | AUC0−∞ [2]: 48.4 ng·h/mL | Cmax [2]: 4.5 ng/mL | AUC0−∞ [3]: 63.1 ng·h/mL | Cmax [3]: 6.1 ng/mL | AUC0−∞ [4]: 177 ng·h/mL | Cmax [4]: 19.2 ng/mL
